Test results from PMC9820411, “Late-Stage Functionalization through Click Chemistry Provides GLUT5-Targeting Glycoconjugate as a Potential PET Imaging Probe” (International Journal of Molecular Sciences, 2022).

Biological target: T1, GLUT5 (Homo sapiens, UniProt P22732)
T1 construct: gene SLC2A5
T1 sequence (P22732 1-501): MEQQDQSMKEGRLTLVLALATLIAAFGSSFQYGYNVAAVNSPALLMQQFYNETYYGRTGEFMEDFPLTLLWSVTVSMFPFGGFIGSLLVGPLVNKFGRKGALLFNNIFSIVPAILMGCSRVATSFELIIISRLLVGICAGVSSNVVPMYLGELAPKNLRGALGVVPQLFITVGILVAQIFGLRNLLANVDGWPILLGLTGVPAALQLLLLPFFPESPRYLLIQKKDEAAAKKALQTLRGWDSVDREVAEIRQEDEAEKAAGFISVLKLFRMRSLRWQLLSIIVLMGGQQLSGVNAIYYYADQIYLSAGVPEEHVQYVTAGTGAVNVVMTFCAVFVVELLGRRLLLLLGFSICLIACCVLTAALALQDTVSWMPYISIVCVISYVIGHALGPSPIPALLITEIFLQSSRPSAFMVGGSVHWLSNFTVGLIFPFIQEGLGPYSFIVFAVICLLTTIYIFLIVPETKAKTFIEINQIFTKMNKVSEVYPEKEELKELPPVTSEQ
Test: competition with ManCou-F uptake in MCF7 cells
Format: cell-based

IC50: ~28 mM
Structure (SMILES): OC[C@H]1OC(O)(CO)[C@@H](O)[C@@H]1O (stereo partly shown) [fructose]
